Like-named read-outs stand apart in the source and are kept apart here.
Legend:
[1] = test system: P. falciparum African D6 clone; test: microbe, parasite or virus in culture; format: cell-based; details: Plasmodium falciparum, D6, read-out: D6 IC50
[2] = test system: P. falciparum multidrug resistant TM91C235 strain (Thailand); test: microbe, parasite or virus in culture; format: cell-based; details: Plasmodium falciparum, read-out: TM91C235 IC50
[3] = test system: P. falciparum Indochina W2 clone; test: microbe, parasite or virus in culture; format: cell-based; details: Plasmodium falciparum, W2, read-out: W2 IC50
[4] = test system: HepG2 (hepatocellular carcinoma) cell line; details: human
[5] = in vitro; details: mouse, microsomes
[6] = mouse
[7] = human
[8] = test system: P. berghei; details: mouse, in vivo
[9] = target: BoNT/A LC (Clostridium botulinum, UniProt P0DPI0); test: biochemical
BoNT/A LC, sequence (P0DPI0 2-448 limits assumed): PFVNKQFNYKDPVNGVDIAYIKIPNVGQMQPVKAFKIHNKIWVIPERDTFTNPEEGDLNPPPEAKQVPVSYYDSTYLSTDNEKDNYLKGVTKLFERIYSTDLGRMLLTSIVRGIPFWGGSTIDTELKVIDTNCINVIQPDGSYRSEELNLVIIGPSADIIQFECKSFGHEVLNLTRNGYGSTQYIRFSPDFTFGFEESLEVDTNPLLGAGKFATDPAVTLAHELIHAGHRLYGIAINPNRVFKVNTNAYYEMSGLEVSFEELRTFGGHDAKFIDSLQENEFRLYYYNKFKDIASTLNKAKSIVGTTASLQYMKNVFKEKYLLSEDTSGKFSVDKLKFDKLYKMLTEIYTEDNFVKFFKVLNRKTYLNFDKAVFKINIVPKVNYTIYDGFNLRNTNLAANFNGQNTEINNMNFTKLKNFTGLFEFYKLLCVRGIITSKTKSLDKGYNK

SMILES | SI HepG2/D6 [4] | SI HepG2/TM91C235 [4] | SI HepG2/W2 [4] | further results
CCN(CC)CCCC(C)Nc1ccnc2cc(Cl)ccc12 (stereo not drawn) [Compound 9, chloroquine] | – | – | – | IC50 [1]: 0.0123 µM
CC(=O)O[C@@H]1CC[C@@]2(C)[C@@H](C1)C[C@@H](OC(C)=O)[C@@H]1[C@@H]2C[C@H](OC(C)=O)[C@]2(C)[C@@H]([C@H](C)CCCNCCNc3ccnc4cc(Cl)ccc34)CC[C@@H]12 [Compound 12, N-(3α,7α,12α-Triacetoxy-5β-cholan-24-yl)-N′-(7′-chloroquinolin-4′-yl)ethane-1,2-diamine] | – | – | – | IC50 [1]: 0.0169 µM; IC50 [2]: 0.0277 µM; IC50 [3]: 0.0114 µM
CC(=O)O[C@H]1C[C@H]2[C@@H]([C@H](OC(C)=O)C[C@@H]3C[C@H](O)CC[C@@]32C)[C@@H]2CC[C@H]([C@H](C)CCCNCCCNc3ccnc4cc(Cl)ccc34)[C@@]12C [Compound 17] | 84/115/90 | 84/115/90 | 84/115/90 | half-life [5]: > 1 h
CC(=O)O[C@H]1C[C@H]2[C@@H]([C@H](OC(C)=O)C[C@@H]3C[C@H](NS(C)(=O)=O)CC[C@@]32C)[C@@H]2CC[C@H]([C@H](C)CCCN(C)CCCNc3ccnc4cc(Cl)ccc34)[C@@]12C [Compound 43] | 93/89/139 | 93/89/139 | 93/89/139 | half-life [5]: > 1 h
CC(=O)O[C@H]1C[C@H]2[C@@H]([C@H](OC(C)=O)C[C@@H]3C[C@H](N(C)C)CC[C@@]32C)[C@@H]2CC[C@H]([C@H](C)CCCNCCNc3ccnc4cc(Cl)ccc34)[C@@]12C [Compound 50, 24-N-[(7-Chloroquinoline-4-yl)amino]ethylamino-3α-N′,N′-dimethylamino-7α,12α-diacetoxy-5β-cholane] | 714/333/435 | 714/333/435 | 714/333/435 | MLM stability (t1/2) [6]: 60/60 min; HLM stability (t1/2) [7]: 60/60 min
CC(=O)O[C@H]1C[C@H]2[C@@H]([C@H](OC(C)=O)C[C@@H]3C[C@H](N)CC[C@@]32C)[C@@H]2CC[C@H]([C@H](C)CCCN(C)CCNc3ccnc4cc(Cl)ccc34)[C@@]12C [Compound 54, 24-N-Methyl-N-[(7-chloroquinoline-4-yl)amino]ethylamino-3α-amino-7α,12α-diacetoxy-5β-cholane] | 4993/3995/2327 | 4993/3995/2327 | 4993/3995/2327 | protection/cure of mice [8]: failed to protect/cure mice; day postinfection on which mice died ([8]; po): 13; signs of compound toxicity upon necropsy ([8]; po): no signs of tissue damage caused by compound toxicity; MLM stability (t1/2) [6]: 60/60 min; HLM stability (t1/2) [7]: 60/60 min
CC(=O)O[C@H]1C[C@H]2[C@@H]([C@H](OC(C)=O)C[C@@H]3C[C@H](N(C)C)CC[C@@]32C)[C@@H]2CC[C@H]([C@H](C)CCCN(C)CCNc3ccnc4cc(Cl)ccc34)[C@@]12C [Compound 56, 24-N-Methyl-N-[(7-chloroquinoline-4-yl)amino]ethylamino-3α-N′,N′-dimethylamino-7α,12α-diacetoxy-5β-cholane] | 6824/3920/3176 | 6824/3920/3176 | 6824/3920/3176 | half-life [5]: > 1 h
CC(=O)O[C@H]1C[C@H]2[C@@H]([C@H](OC(C)=O)C[C@@H]3C[C@H](N(C)C)CC[C@@]32C)[C@@H]2CC[C@H]([C@H](C)CCCN(C)CCCNc3ccnc4cc(Cl)ccc34)[C@@]12C [Compound 57] | 93/35/71 | 93/35/71 | 93/35/71 | MLM stability (t1/2) [6]: 60/60 min; HLM stability (t1/2) [7]: 60/60 min
CC(=O)O[C@H]1C[C@H]2[C@@H]([C@H](OC(C)=O)C[C@@H]3C[C@H](NC(=O)OC(C)(C)C)CC[C@@]32C)[C@@H]2CC[C@H]([C@H](C)CCCN(CCCNc3ccnc4cc(Cl)ccc34)CCC[C@@H](C)[C@H]3CC[C@H]4[C@@H]5[C@H](OC(C)=O)C[C@@H]6C[C@H](NC(=O)OC(C)(C)C)CC[C@]6(C)[C@H]5C[C@H](OC(C)=O)[C@]34C)[C@@]12C [Compound 59, N,N-Di(3α-amino-tert-butylcarbamate-7α,12α-diacetoxy-5β-cholan-24-yl)-N′-(7′-chloroquinoline-4′-yl)-1,3-propanediamine] | 96/96/96 | 96/96/96 | 96/96/96 | inhibition at 20 µM ([9]; at 20 μM): 6%
CC(=O)O[C@H]1C[C@H]2[C@@H]([C@H](OC(C)=O)C[C@@H]3C[C@H](N)CC[C@@]32C)[C@@H]2CC[C@H]([C@H](C)CCCN(CCCNc3ccnc4cc(Cl)ccc34)CCC[C@@H](C)[C@H]3CC[C@H]4[C@@H]5[C@H](OC(C)=O)C[C@@H]6C[C@H](N)CC[C@]6(C)[C@H]5C[C@H](OC(C)=O)[C@]34C)[C@@]12C [Compound 61] | 10/9/7 | 10/9/7 | 10/9/7 | –
N=C(N)c1ccc(Oc2ccc(-c3cc4ccc(C(=N)N)cc4[nH]3)cc2)cc1 [NSC 240898, reference compound] | – | – | – | inhibition at 20 µM [9]: 73.3%

From publication PMC4032193 (Journal of Medicinal Chemistry, 2014)
